Assay results as given in US20210063420A1, “Human Neural Organoid Platform for Detecting Drugs of Abuse Disorder Susceptibility and Therapeutic Countermeasure and Non-Addictive Pain Medication Development” (Rene Anand, priority 2019, published 2021).

System: human iPSC-derived brain organoids
Description: All cpm data are normalized data and the reads are a direct representation of the abundance of the RNA for each gene.
Transcriptomic data from these neural organoids were obtained. […] Detailed data analysis using Gene Card and Pubmed data bases were performed.

## CN1CCCC1c1cccnc1 (stereo not drawn) [nicotine]
Chronic nicotine exposure of human iPSC-derived brain organoids
  expression of a set of genes for proteins involved in the development of midbrain dopaminergic neurons (VTA and SNpc): increases the expression
Exposure for 4 weeks to nicotine at 50 nanomolar, 500 nanomolar and 1 micromolar in the growth media, identified responsive genes
  change in gene expression versus 0 (control): greater than 1.4 fold
Human neural organoids, preliminary data
  expression of a subset of genes (Nurr 1, Lmx1a, Lmx1b, Neurog2, OTX2, Nolz1, NDNF): upregulated
